# Experimental data published in patent US20260317319A1, “NOVEL ERGOLINES AND METHODS OF TREATING MOOD DISORDERS” (Gilgamesh Pharma Inc., priority 2023, published 2026).
# Read-outs that look alike come from different tables or passages of the source.
# Experiments:
# 5-HT2B receptor = target: T1, 5-HT2B receptor (Homo sapiens, UniProt P41595); test: cell-based; format: cell-based; conditions: Ca2+ flux; for Emax: HEK293, agonist, HEK293, max dose, read-out: 5-HT2B % Act @ Max Dose; for EC50: agonist, HEK293
# T1 construct: expressed in transfected cells; host or cells: HEK293, stably transfected
# T1 sequence (P41595 whole entry): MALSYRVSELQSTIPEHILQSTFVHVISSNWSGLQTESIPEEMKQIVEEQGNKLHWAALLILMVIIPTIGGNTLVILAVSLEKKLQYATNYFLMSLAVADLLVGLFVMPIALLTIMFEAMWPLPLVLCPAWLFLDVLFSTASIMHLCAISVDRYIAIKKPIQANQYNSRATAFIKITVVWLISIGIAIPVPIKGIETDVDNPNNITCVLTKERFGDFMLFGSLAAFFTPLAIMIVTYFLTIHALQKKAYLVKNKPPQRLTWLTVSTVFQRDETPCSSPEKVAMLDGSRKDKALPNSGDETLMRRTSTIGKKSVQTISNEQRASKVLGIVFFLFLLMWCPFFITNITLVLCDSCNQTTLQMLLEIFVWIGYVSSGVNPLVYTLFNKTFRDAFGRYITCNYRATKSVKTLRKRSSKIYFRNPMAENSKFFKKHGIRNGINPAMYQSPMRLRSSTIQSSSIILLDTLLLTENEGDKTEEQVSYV
# Summary of the method: (§1)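 FLIPR Tetra fluorescence read-out of calcium flux after compound addition. Receptor-expressing stable lines were used (HEK293 for 2A/2B; CHO with Gα15 for 1A), dye-loaded with Fluo-4 Direct and 2.5 mM final probenecid, 50 min at 37 °C.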
# 5-HT2A receptor [1] = target: T2, 5-HT2A receptor (Homo sapiens, UniProt P28223); test: biochemical; format: binding; parameters: expressed in transfected cells; host or cells: HEK293, stably transfected; conditions: for Ki: [3H]ketanserin 1 nM, HEK293 stable cell line, 1 h, 25 °C
# T2 sequence (P28223 whole entry): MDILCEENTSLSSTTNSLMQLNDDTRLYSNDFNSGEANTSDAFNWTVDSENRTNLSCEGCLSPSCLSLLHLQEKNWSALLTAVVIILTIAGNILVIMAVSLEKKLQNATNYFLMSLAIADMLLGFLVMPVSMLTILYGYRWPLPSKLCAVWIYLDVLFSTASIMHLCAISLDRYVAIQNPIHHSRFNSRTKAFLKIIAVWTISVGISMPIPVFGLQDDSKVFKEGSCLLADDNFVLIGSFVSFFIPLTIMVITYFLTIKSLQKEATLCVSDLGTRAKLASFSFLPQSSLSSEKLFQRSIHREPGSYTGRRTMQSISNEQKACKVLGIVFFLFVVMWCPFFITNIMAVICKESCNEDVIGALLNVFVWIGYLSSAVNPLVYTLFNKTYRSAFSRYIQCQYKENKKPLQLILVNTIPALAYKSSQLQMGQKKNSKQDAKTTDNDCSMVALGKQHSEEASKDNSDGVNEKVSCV
# Summary of the method: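 Binding affinity comes from a [^3H]ketanserin radioligand assay run under literature-adapted conditions.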
# 5-HT1A receptor = target: T3, 5-HT1A receptor (Homo sapiens, UniProt P08908); test: cell-based; conditions: agonist, Ca2+ flux; for Emax: CHO, CHO cells with Gα15, max dose, read-out: 5-HT1A % Act @ Max Dose; for EC50: CHO cells with Gα15
# T3 construct: expressed in transfected cells; host or cells: CHO cells, stably transfected
# T3 sequence (P08908 1-422): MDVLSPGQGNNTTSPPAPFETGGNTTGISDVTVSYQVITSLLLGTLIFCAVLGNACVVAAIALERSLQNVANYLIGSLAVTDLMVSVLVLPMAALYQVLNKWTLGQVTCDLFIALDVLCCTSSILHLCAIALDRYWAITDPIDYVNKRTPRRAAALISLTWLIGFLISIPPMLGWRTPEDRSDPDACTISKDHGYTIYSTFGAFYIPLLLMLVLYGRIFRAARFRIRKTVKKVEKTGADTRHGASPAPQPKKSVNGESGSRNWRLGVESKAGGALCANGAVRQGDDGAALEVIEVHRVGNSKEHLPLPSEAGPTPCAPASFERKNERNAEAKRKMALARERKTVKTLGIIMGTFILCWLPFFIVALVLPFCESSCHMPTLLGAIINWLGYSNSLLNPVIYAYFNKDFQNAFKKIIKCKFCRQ
# Summary of the method: as §1
# 5-HT2A receptor [2] = target: T2, 5-HT2A receptor; test: cell-based; format: cell-based; parameters: expressed in transfected cells; host or cells: HEK293, stably transfected; conditions: Ca2+ flux; for Emax: HEK293, agonist, HEK293, max dose, read-out: 5-HT2A % Act @ Max Dose; for EC50: agonist, HEK293
# Summary of the method: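 Agonist activity measured by FLIPR Ca2+ flux in stably transfected cells: HEK293 for 5-HT2A and 5-HT2B, CHO co-expressing Gα15 for 5-HT1A. Cells loaded with Fluo-4 Direct dye plus probenecid (2.5 mM final) for 50 min at 37 °C, 5% CO2; compounds added and fluorescence read on FLIPR Tetra.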
# 5-HT1B receptor = target: T4, 5-HT1B receptor (Homo sapiens, UniProt P28222); test: cAMP accumulation functional assay at 5-HT1B; format: cell-based; conditions: agonist, cAMP accumulation; for Emax: max dose, read-out: 5-HT1B % Act @ Max Dose
# T4 construct: expressed in transfected cells
# T4 sequence (P28222 whole entry): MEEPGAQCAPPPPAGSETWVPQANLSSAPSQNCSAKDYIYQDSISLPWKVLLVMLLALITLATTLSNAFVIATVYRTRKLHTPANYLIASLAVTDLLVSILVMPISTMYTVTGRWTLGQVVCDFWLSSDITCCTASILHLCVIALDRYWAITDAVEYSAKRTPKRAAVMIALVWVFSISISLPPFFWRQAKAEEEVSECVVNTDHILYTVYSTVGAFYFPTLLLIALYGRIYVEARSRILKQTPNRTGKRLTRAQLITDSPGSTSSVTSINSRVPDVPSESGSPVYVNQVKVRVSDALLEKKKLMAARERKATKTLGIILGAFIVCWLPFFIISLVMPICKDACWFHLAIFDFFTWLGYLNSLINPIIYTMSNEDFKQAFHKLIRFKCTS
# Protocol: Functional Assay at 5-HT1B. Agonist activity at 5-HT1B was determined using a CAMP accumulation protocol at WuXi AppTec (Hong Kong) Limited according to their standard protocols. Briefly, stably transfected cells were plated in an OptiPlate-384 well plate, incubated at RT for 60 mins, and cAMP standard solution (800 nM, 10 μL) was added to the blank well. Then, 10 μL detection reagent was added to each well, the plate incubated for 60 mins at RT, and the plate read using En Vision.
# in vitro [3] = format: in vitro ADME, human; conditions: human, microsomes, HLM 0.50 mg/mL, NADPH 1 mM, 1 μM compound, pH 7.4, 37° C., 60 min; for microsomal CLint: read-out: Intrinsic clearance (Clint); for half-life: read-out: half-life (t1/2)
# in vitro [4] = format: in vitro ADME, mouse; conditions: mouse, microsomes, MLM (male CD-1) 0.50 mg/mL, NADPH 1 mM, 1 μM compound, pH 7.4, 37° C., 60 min; for microsomal CLint: read-out: Intrinsic clearance (Clint); for half-life: read-out: half-life (t1/2)
# Excerpt: MLM Stability Pooled MLM from male CD-1 mice (BIOIVT M00501) were used.
# in vitro [5] = format: in vitro ADME, rat; conditions: rat, microsomes, RLM (male Sprague-Dawley) 0.50 mg/mL, NADPH 1 mM, 1 μM compound, pH 7.4, 37° C., 60 min; for microsomal CLint: read-out: Intrinsic clearance (Clint); for half-life: read-out: half-life (t1/2)
# Excerpt: RLM Stability Pooled RLM from male Sprague-Dawley rats (Xenotech R1000) were used.
# 5-HT2A receptor [6] = target: T2, 5-HT2A receptor; test: cell-based; format: cell-based; conditions: agonist, beta-arrestin recruitment; for EC50: PathHunter, read-out: 5-HT2A Arrestin EC50; for Emax: max dose, read-out: 5-HT2A Arrestin % Act @ Max Dose
# Protocol: Arrestin Functional Assay at 5-HT2A. Recruitment of beta-arrestin was determined using a PathHunter assay at Eurofins DiscoverX (Fremont, CA) according to their standard protocols. PathHunter GPCR beta-arrestin assays take advantage of DiscoverX's proprietary Enzyme Fragment Complementation technology. The GPCR is fused in frame with a small enzyme donor fragment ProLink™ (PK) and co-expressed in cells stably expressing a fusion protein of beta-arrestin and the larger, N-terminal deletion mutant of beta-galactosidase. Activation of the GPCR (5-HT2A receptor in this case) stimulates binding of beta-arrestin to the PK-tagged GPCR and forces complementation of the two enzyme fragments, resulting in the formation of an active beta-galactosidase enzyme. This interaction leads to an increase in enzyme activity that can be measured using chemiluminescent PathHunter Detection Reagents. Briefly, PathHunter cells expressing 5-HT2A receptors were seeded in a volume of 20 μL into 384-well plates and incubated at 37° C. for the appropriate time prior to testing. […] Plates were then imaged on a microplate reader and the agonist activity was calculated using the following formula: % Activity=100%×(mean RLU of test sample-mean RLU of vehicle control)/(mean MAX control ligand-mean RLU of vehicle control), where RLU=relative light units.
# 5-HT2C receptor = target: T5, 5-HT2C receptor (Homo sapiens, UniProt P28335); test: cell-based; conditions: read-out: 5-HT2C % Act @ Max Dose
# T5 sequence (P28335 33-458): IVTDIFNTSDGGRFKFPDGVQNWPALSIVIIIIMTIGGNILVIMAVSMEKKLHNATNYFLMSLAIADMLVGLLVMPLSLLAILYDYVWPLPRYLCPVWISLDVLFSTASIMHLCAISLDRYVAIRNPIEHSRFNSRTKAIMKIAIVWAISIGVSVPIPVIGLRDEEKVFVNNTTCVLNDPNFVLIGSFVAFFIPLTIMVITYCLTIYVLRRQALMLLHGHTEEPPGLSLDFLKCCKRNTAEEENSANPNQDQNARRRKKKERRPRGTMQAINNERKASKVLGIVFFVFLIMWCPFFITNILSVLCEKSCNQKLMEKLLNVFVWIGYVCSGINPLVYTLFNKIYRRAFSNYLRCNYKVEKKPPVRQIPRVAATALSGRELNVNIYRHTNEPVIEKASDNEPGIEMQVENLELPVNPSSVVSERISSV
smiles,measurement,setting,value
"CCN(CC)C(=O)[C@@H]1C=C2c3cccc4c3C(CN4)C[C@H]2N(C)C1 (mixture of isomers) [Compound 37, (6aR,9R)—N,N-diethyl-7-methyl-4,5,5a,6,6a,7,8,9-octahydroindolo[4,3-fg]quinoline-9-carboxamide]",Emax,5-HT2B receptor,24.1%
same,potency in receptor binding,"5-HT2A receptor [1]; radioligand binding, 5-HT2A",reduced in potency compared to their dehydro counterparts
same,Emax,5-HT1A receptor,109%
same,Emax,5-HT2A receptor [2],76.4%
same,Emax,5-HT1B receptor,90.7%
"CCN(CC)C(=O)[C@@H]1C=C2c3cccc4[nH]cc(c34)C[C@H]2N(Cc2ccncc2)C1 [Compound 51, (6aR,9R)—N,N-diethyl-7-(pyridin-4-ylmethyl)-4,6,6a,7,8,9-hexahydroindolo[4,3-fg]quinoline-9-carboxamide]",Emax,5-HT2B receptor,19.3%
same,EC50,5-HT2B receptor,> 100000 nM
same,Ki,5-HT2A receptor [1],15.6 nM
same,microsomal CLint,in vitro [3],34.3 µL/min/mg
same,half-life,in vitro [3],40.4 min
same,Emax,5-HT1A receptor,100%
same,EC50,5-HT1A receptor,1460 nM
same,Emax,5-HT2A receptor [2],102%
same,EC50,5-HT2A receptor [2],97.8 nM
same,EC50,5-HT1B receptor,190 nM
same,Emax,5-HT1B receptor,89.1%
same,microsomal CLint,in vitro [4],480 µL/min/mg
same,half-life,in vitro [4],2.9 min
same,microsomal CLint,in vitro [5],73.6 µL/min/mg
same,half-life,in vitro [5],18.8 min
"CCN(CC)C(=O)[C@@H]1C=C2c3cccc4[nH]cc(c34)C[C@H]2N(Cc2cccnc2)C1 [Compound 55, (6aR,9R)—N,N-diethyl-7-(pyridin-3-ylmethyl)-4,6,6a,7,8,9-hexahydroindolo[4,3-fg]quinoline-9-carboxamide]",Emax,5-HT2B receptor,25.7%
same,EC50,5-HT2B receptor,> 100000 nM
same,Ki,5-HT2A receptor [1],39.7 nM
same,microsomal CLint,in vitro [3],56 µL/min/mg
same,half-life,in vitro [3],24.8 min
same,Emax,5-HT1A receptor,108%
same,EC50,5-HT1A receptor,4090 nM
same,Emax,5-HT2A receptor [2],87.8%
same,EC50,5-HT2A receptor [2],158 nM
same,EC50,5-HT1B receptor,575 nM
same,Emax,5-HT1B receptor,82.5%
same,microsomal CLint,in vitro [4],543 µL/min/mg
same,half-life,in vitro [4],2.6 min
same,microsomal CLint,in vitro [5],103 µL/min/mg
same,half-life,in vitro [5],13.4 min
"CCN(CC)C(=O)[C@@H]1C=C2c3cccc4[nH]cc(c34)C[C@H]2N(Cc2ccc(F)c(OC)c2)C1 [Compound 60, (6aR,9R)—N,N-diethyl-7-(4-fluoro-3-methoxybenzyl)-4,6,6a,7,8,9-hexahydroindolo[4,3-fg]quinoline-9-carboxamide]",Emax,5-HT2B receptor,23.8%
same,EC50,5-HT2B receptor,> 100000 nM
same,Ki,5-HT2A receptor [1],6.18 nM
same,microsomal CLint,in vitro [3],69.1 µL/min/mg
same,half-life,in vitro [3],20.1 min
same,Emax,5-HT1A receptor,53.1%
same,EC50,5-HT1A receptor,36400 nM
same,Emax,5-HT2A receptor [2],102%
same,EC50,5-HT2A receptor [2],1380 nM
same,EC50,5-HT1B receptor,> 10000 nM
same,Emax,5-HT1B receptor,31%
same,microsomal CLint,in vitro [4],295 µL/min/mg
same,half-life,in vitro [4],4.7 min
same,microsomal CLint,in vitro [5],152 µL/min/mg
same,half-life,in vitro [5],9.1 min
"CCNC(=O)[C@@H]1C=C2c3cccc4[nH]cc(c34)C[C@H]2N(Cc2cccc(OC)c2)C1 [Compound 63, (6aR,9R)—N-ethyl-7-(3-methoxybenzyl)-4,6,6a,7,8,9-hexahydroindolo[4,3-fg]quinoline-9-carboxamide]",Emax,5-HT2B receptor,-0.31%
same,EC50,5-HT2B receptor,> 10000 nM
same,EC50,5-HT2A receptor [6],12.6 nM
same,Emax,5-HT2A receptor [6],64%
same,Ki,5-HT2A receptor [1],11.3 nM
same,microsomal CLint,in vitro [3],442 µL/min/mg
same,half-life,in vitro [3],3.1 min
same,Emax,5-HT1A receptor,88.4%
same,EC50,5-HT1A receptor,6110 nM
same,Emax,5-HT2A receptor [2],91%
same,EC50,5-HT2A receptor [2],96.9 nM
same,EC50,5-HT1B receptor,> 10000 nM
same,Emax,5-HT1B receptor,45.7%
same,microsomal CLint,in vitro [4],1610 µL/min/mg
same,half-life,in vitro [4],0.9 min
same,microsomal CLint,in vitro [5],645 µL/min/mg
same,half-life,in vitro [5],2 min
"CCNC(=O)[C@@H]1C=C2c3cccc4[nH]cc(c34)C[C@H]2N(Cc2cccc(O)c2)C1 [Compound 64, (6aR,9R)—N-ethyl-7-(3-hydroxybenzyl)-4,6,6a,7,8,9-hexahydroindolo[4,3-fg]quinoline-9-carboxamide]",Emax,5-HT2B receptor,1.49%
same,EC50,5-HT2B receptor,> 10000 nM
same,EC50,5-HT2A receptor [6],23.2 nM
same,Emax,5-HT2A receptor [6],52%
same,Ki,5-HT2A receptor [1],12 nM
same,microsomal CLint,in vitro [3],100 µL/min/mg
same,half-life,in vitro [3],13.8 min
same,Emax,5-HT1A receptor,87%
same,EC50,5-HT1A receptor,424 nM
same,Emax,5-HT2A receptor [2],75.8%
same,EC50,5-HT2A receptor [2],53.3 nM
same,EC50,5-HT1B receptor,4520 nM
same,Emax,5-HT1B receptor,68.8%
same,microsomal CLint,in vitro [4],312 µL/min/mg
same,half-life,in vitro [4],4.4 min
same,microsomal CLint,in vitro [5],222 µL/min/mg
same,half-life,in vitro [5],6.2 min
CC[C@@H](C)NC(=O)[C@H]1C=C2c3cccc4[nH]cc(c34)C[C@H]2N(C)C1 [Int8a],Emax,5-HT2B receptor,6.87%
same,Emax,5-HT2A receptor [6],35.5%
same,Emax,5-HT2C receptor,93.7%
same,Emax,5-HT1A receptor,104%
same,Emax,5-HT2A receptor [2],72.6%
CCC(CC)NC(=O)[C@H]1C=C2c3cccc4[nH]cc(c34)C[C@H]2N(C)C1 [Int14a],Emax,5-HT2B receptor,1.86%
same,Emax,5-HT2A receptor [6],44.3%
same,Emax,5-HT2C receptor,119%
same,Emax,5-HT1A receptor,70.3%
same,Emax,5-HT2A receptor [2],33%
CCC[C@@H](C)NC(=O)[C@H]1C=C2c3cccc4[nH]cc(c34)C[C@H]2N(C)C1 [Int17a],Emax,5-HT2B receptor,5.63%
same,Emax,5-HT2A receptor [6],43.7%
same,Emax,5-HT2C receptor,112%
same,Emax,5-HT1A receptor,88.5%
same,Emax,5-HT2A receptor [2],63.3%
